Assay results from patent US11969402B2, “Compositions and methods for skin rejuvenation” (THE JOHNS HOPKINS UNIVERSITY, priority 2019, dated 2024).

Experiments:
[1] = tested on: normal human keratinocytes; assay: Transcriptome and proteome comparison of keratinocytes treated with Poly (I:C) or RA; format: cell-based; conditions: for identical gene transcripts inhibited by Poly (I:C) and RA: overlap of top ranked 100 downregulated transcripts; for identical gene transcripts induced by Poly (I:C) and RA: overlap of top ranked 100 upregulated transcripts; for overlap of inhibited proteins between Poly (I:C) and RA: top ranked 100 downregulated proteins; for overlap of induced proteins between Poly (I:C) and RA: top ranked 100 upregulated proteins
Excerpt: Microarray analysis. RNA isolated from keratinocytes with or without Poly (I:C) (GSE92646) and mouse wound tissues from wild type (C57BL/6NJ) and Tlr3^−/− with BMS493 and RA were submitted to the JHMI Deep Sequencing & Microarray core for Affymetrix® Human Exon 1.0ST and mouse microarray chip according to manufacturer's protocols. Raw gene expression signals in the form of Affymetrix CEL files were extracted and normalized with Partek® Genomics Suite™ software using the Robust Multichip Analysis (RMA) algorithm. Genes were ranked according to fold change of the intervention, and referred to as top or bottom induced if they are at the highest fold change (top) or lowest fold change (bottom). The significance of gene expression was measured by student's t-test analysis. These datasets generated during the current study are available in the NCBI GEO repository as listed above.
Proteomic analysis. For in vivo samples, wild-type and Tlr3^−/− unwounded and wounded skin where wound regions (center and edge area) were prepared for analysis. For in vitro samples, human primary scalp keratinocytes treated with 0.1 μM retinoic acid (RA) or 0.5 μg per ml Poly (I:C) and control were used. In vivo and in vitro samples were lysed in 5% sodium deoxycholate after washing in phosphate-buffered saline. Lysates were washed, reduced, alkylated and trypsinolyzed on filter as described by Wisniewski et al.^35 and Erde et al.^36. Tryptic peptides were separated on a nanoACQUITY UPLC analytical column (BEH130 C18, 1.7 μm, 75 μm×200 mm, Waters) over a 165 min linear acetonitrile gradient (3-40%) with 0.1% formic acid on a Waters nano-ACQUITY UPLC system, and analyzed on a coupled Thermo Scientific Orbitrap Fusion Tribrid mass spectrometer as described by Williamson et al.^37. Full scans were acquired at a resolution of 120,000, and precursors were selected for fragmentation by higher-energy collisional dissociation (normalized collision energy at 30%) for a maximum 3-second cycle. Tandem mass spectra were searched against a UniProt human reference proteome using MS Amanda algorithm described by Dorfer et al.^38 with a maximum precursor mass error tolerance of 10 ppm. Carbamidomethylation of cysteine and deamidation of asparagine and glutamine were treated as static and dynamic modifications, respectively. Resulting hits were validated at a maximum false discovery rate of 0.01 using a semi-supervised machine learning algorithm Percolator developed by Käll et al.^39. Protein abundance ratios were measured by comparing the MS1 peak volumes of peptide ions, whose identities were confirmed by MS2 sequencing as described above. The Label-free quantifications were performed using an aligned AMRT (Accurate Mass and Retention Time) cluster quantification algorithm Minora (Thermo Fisher Scientific, 2017). Pathway and gene ontology analysis were performed with Qiagen Ingenuity, Panther GO and DAVID databases, as described by Kramer et al.^40, Mi et al.^41, and Huang et al.^42, respectively.

Aldh1a2, Aldh1a3 = assay: qRT-PCR of Aldh1a2 and Aldh1a3 in mouse wounds; format: in vivo
Description: Wound Induced Hair Neogenesis (WIHN). All experiments were followed with the present inventors' WIHN protocol^1,9. Briefly, hair was shaved and a 1.2 cm^2 full-thickness skin on the backs of 21-day old (telogen) male and female mice was removed by sterile scissors. A single treatment of RA (30 μl) (0.1 μg per mouse) (Millipore Sigma, R2625) and BMS493 (30 μl) (0.1 μg per mouse) (Cayman Chemical, #17418) was applied topically onto open wound on WD1 of Tlr3^−/− and WT mice, respectively. Poly (I:C) (50 μl) (5 μg per mouse) (Invivogen, tlrl-pic) was injected under the healed scab on WD3 of WT mice as described before^9,34. On WD20-24, numbers of regenerated hair follicles were visualized and quantified in the re-epithelialized skin by non-invasive confocal scanning laser microscopy (CSLM) (Caliber I.D., VIVASCOPE 1500) as published^1,9. As a vehicle (Control), ethanol (EtOH), dimethylsulfoxide (DMSO), or PBS was treated for RA, BMS493, and Poly (I:C), respectively.
RNA isolation and quantitative real-time PCR (qRT-PCR). For cells, total RNA was isolated from cultured keratinocytes using RNeasy Mini Kit (Qiagen, Valencia, CA, #74106) and treated with DNase I (Qiagen, #79254) to eliminate genomic DNA. For tissue, total RNA was isolated by following the manual of Direct-zol™ RNA MiniPrep Plus kit (Zymo Research, R2073). The purity and concentration of RNAs were analyzed using a NanoDrop2000c (Thermo Fisher Scientific, ND-2000c). Following reverse transcriptase reactions using high-capacity RNA to cDNA kit (Life Technologies), qRT-PCR was performed to measure target genes using TaqMan probes and Fast reaction master mix reagents (Life Technologies). Relative expression of mRNAs was analyzed by the cycle of threshold (Ct) value of target genes and quantified by normalizing to ribosomal protein large P0 (RPLP0) for human keratinocytes and to β-Actin for mouse keratinocytes or tissues as housekeeping genes using the ΔΔCt method^48.

CC1=C(/C=C/C(C)=C/C=C/C(C)=C/C(=O)O)C(C)(C)CCC1 [RA, all-trans-retinoic acid]
identical gene transcripts inhibited by Poly (I:C) and RA [1]: 18% | identical gene transcripts induced by Poly (I:C) and RA [1]: 13% | overlap of inhibited proteins between Poly (I:C) and RA [1]: 36% | overlap of induced proteins between Poly (I:C) and RA [1]: 61%

Polyinosinic-polycytidylic acid [Poly (I:C)]
Aldh1a3 and Aldh1a2 induction in early wounds (Aldh1a2, Aldh1a3; Tlr3−/− mice): neither is induced | Aldh1a2 transcription during wound healing (Aldh1a2, Aldh1a3; WT mice): did not show a similar pattern | Aldh1a3 transcription during wound healing (Aldh1a2, Aldh1a3; WT mice): induced | identical gene transcripts inhibited by Poly (I:C) and RA [1]: 18% | identical gene transcripts induced by Poly (I:C) and RA [1]: 13% | overlap of inhibited proteins between Poly (I:C) and RA [1]: 36% | overlap of induced proteins between Poly (I:C) and RA [1]: 61%
